Results from US8293916B2, “Diazole derivatives” (Hoffmann-La Roche Inc., priority 2004, dated 2012).
Like-named read-outs stand apart in the source and are kept apart here.

Target: T1, human mGlu 5a receptor (Homo sapiens, UniProt P41594)
T1 construct: expressed in transfected cells; host or cells: EBNA cells (transient transfection); cell membrane homogenates
Assay: [3H]MPEP competition binding on membranes of EBNA cells transiently transfected with human mGlu 5a receptor
Protocol: Cell membrane homogenates were stored at −80° C. until the day of assay where upon they were thawed and resuspended and polytronised in 15 mM Tris-HCl, 120 mM NaCl, 100 mM KCl, 25 mM CaCl2, 25 mM MgCl2 binding buffer at pH 7.4 to a final assay concentration of 20 μg protein/well.
Competition experiments were performed with a fixed concentration of [^3H]MPEP (2 nM) and IC50 values of test compounds evaluated using 11 concentrations (0.3-10,000 nM).
Nonspecific binding was measured in the presence of 10 μM MPEP. The radioactivity on the filter was counted (3 min) on a Packard Top-count microplate scintillation counter with quenching correction after addition of 45 μl of microscint 40 (Canberra Packard S.A., Zürich, Switzerland) and shaking for 20 min.
The Ki value is defined by the following formula: Ki=IC50/[1+L/Kd] in which the IC50 values are those concentrations of the compounds tested which cause 50% inhibition of the competing radioligand ([^3H]MPEP). L is the concentration of radioligand used in the binding experiment and the Kd value of the radioligand is empirically determined for each batch of membranes prepared.

[1] = competition with [3H]MPEP (2 nM), 1 h at 4° C., pH 7.4, Ki=IC50/[1+L/Kd]

T1 sequence (P41594 21-1180 isoform P41594-2 limits assumed): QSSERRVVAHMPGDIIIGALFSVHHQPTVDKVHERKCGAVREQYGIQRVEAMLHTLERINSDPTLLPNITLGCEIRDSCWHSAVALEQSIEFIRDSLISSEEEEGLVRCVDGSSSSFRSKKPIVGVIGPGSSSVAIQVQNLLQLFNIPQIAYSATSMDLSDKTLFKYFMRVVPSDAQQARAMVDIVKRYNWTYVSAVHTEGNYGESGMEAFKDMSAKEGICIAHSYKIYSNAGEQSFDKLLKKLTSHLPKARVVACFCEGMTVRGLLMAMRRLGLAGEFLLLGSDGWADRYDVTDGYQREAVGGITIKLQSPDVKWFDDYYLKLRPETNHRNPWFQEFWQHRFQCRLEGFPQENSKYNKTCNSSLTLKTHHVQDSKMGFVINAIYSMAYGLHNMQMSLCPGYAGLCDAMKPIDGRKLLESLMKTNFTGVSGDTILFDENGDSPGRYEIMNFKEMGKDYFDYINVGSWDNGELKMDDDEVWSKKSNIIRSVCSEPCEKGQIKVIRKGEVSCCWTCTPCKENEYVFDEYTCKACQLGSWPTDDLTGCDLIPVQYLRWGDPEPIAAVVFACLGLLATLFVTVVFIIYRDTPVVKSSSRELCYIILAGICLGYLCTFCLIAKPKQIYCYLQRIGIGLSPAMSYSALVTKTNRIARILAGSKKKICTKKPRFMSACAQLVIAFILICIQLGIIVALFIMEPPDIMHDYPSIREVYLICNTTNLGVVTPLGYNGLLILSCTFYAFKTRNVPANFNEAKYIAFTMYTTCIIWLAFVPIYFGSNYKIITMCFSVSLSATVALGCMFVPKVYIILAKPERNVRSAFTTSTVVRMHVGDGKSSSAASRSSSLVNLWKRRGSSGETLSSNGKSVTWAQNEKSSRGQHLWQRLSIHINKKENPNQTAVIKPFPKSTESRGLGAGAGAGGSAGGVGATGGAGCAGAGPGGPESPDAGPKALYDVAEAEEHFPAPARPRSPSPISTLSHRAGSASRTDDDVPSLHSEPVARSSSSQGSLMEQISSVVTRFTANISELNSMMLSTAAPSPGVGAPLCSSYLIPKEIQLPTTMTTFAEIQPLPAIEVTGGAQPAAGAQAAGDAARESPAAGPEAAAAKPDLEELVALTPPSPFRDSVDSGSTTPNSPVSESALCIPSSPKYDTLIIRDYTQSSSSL

SMILES	Ki [1]	Ki
Cc1c(C#Cc2ccnc(Cl)c2)nn(C)c1-c1ccc(F)cc1 [Example 26, 2-Chloro-4-[5-(4-fluoro-phenyl)-1,4-dimethyl-1H-pyrazol-3-ylethynyl]-pyridine]	6 nM	
Cc1nc(C#Cc2ccnc(Cl)c2)c(C)n1-c1ccc(C(F)(F)F)cc1 [Example 13, 2-Chloro-4-[2,5-dimethyl-1-(4-trifluoromethyl-phenyl)-1H-imidazol-4-ylethynyl]-pyridine]		14 nM
Cc1nc(C#Cc2ccnc(Cl)c2)c(C(F)F)n1-c1ccc(F)cc1 [Example 27, 2-Chloro-4-[5-difluoromethyl-1-(4-fluoro-phenyl)-2-methyl-1H-imidazol-4-ylethynyl]-pyridine]	42 nM	
